Read-outs that look alike come from different tables or passages of the source.
How the values were obtained:
[1] = test system: E13.5 rat pancreatic explants; assay: Real-time PCR of lineage markers in cultured pancreatic explants with HDACi; format: cell-based; details: for Arx expression enhanced / Ngn3 expression peak, higher than in controls / increase in PP expression / increase in glucagon expression: day7; for SPP1 expression: especially after 5 and 7 days of culture; for Ngn3 expression profile: from day1; for Pax4 expression: over 7 days of culture; for increase in levels of Mist1 / increase in levels of P48 / increase in levels of amylase: vs control; for endocrine β/δ lineage: MS275 1 μM, NaB 125 μM
Description: The first day post-coitum was taken as embryonic day 0.5 (E0.5). Pregnant female rats at 13.5 days of gestation were killed by CO2asphyxiation, according to the French Animal Care Committee's guidelines. Dorsal pancreatic buds from E13.5 rat embryos were dissected as described previously (2).
(§2) Organ culture, HDACi treatments, BrdU incorporation: Pancreases were laid on 0.45 μm filters (Millipore) at the air-medium interface in Petri dishes, containing RPMI 1640
RNA extraction and real-time PCR: Total RNA was extracted from pools of at least three pancreases using RNeasy Microkit (Qiagen) and reverse transcribed using Superscript reagents (Invitrogen). Real-time PCR was performed with the 7300 Fast real-time PCR System; each reaction consisted of a mix of Taqman® universal PCR master mix with a specific labelled probe (Applied Biosystem) (21). The comparative method of relative quantification (2^−ΔΔct) (38) was used to calculate expression levels of each target gene, normalized to peptidylpropyl isomerase A (ppia/cyclophilin A). The data are presented as fold changes in gene expression. At least three pools of explants were analyzed per condition and results are expressed as means±SEM. Statistical significance was determined using Student's t test.

[2] = test system: E13.5 rat pancreatic explants; assay: TUNEL labelling of apoptotic amylase or insulin cells; format: cell-based
Procedure: TUNEL labelling: Terminal deoxynucleotidyltransferase-mediated dUTP-biotin nick end labeling (TUNEL) experiments were performed using an in situ cell death detection kit (Roche) and followed by insulin and amylase immunostaining.
The effects of HDACi treatment on pancreatic differentiation are independent of proliferation and apoptosis: The observed effects of HDACi on pancreatic development could be attributed to a direct effect of HDAC inhibition on the differentiation program itself or to an indirect effect on proliferation/apoptosis. First, the inventors asked whether the massive increase in the number of NGN3+ cells was accompanied by an increased proliferation of early PDX1+ pancreatic precursor cells that would give rise to more NGN3+ endocrine progenitor cells (20). Thus, they cultured pancreases for 1 day with or without VPA and TSA and added BrdU to the medium during the last hour of culture. No difference in BrdU incorporation was seen. The percentage of PDX1+/BrdU+ was 30.4±1.4% in control conditions, 29.3±2.3% with VPA and 31.9±1.4% in TSA-treated pancreases. They next determined whether the greater number of NGN3+ cells was associated with increased proliferation of such cells. […] Given the observed increase in glucagon-expressing cells with HDACi treatment, the inventors also tested for increased proliferation of such cells. […]

[3] = test system: class I and class II HDACs; details: background, refs 17 and Yoshida et al., 1990; cited from earlier work
[4] = test system: E13.5 rat pancreatic explants; assay: In situ hybridization of Ngn3 transcripts in cultured pancreatic explants; format: cell-based; details: day5
Procedure: In situ hybridization: In situ hybridization was performed as previously described (15) and colorimetric development was performed with 5-bromo-4-chloro-3-indolyl phosphate (Promega) and nitroblue tetrazolium (Roche). No signal was obtained when a sense riboprobe was used.

[5] = test system: E13.5 rat pancreatic explants; assay: Morphology of pancreases cultured with HDACi; format: cell-based; details: for morphology of cultured pancreas (branching, cystic structures, acinar structures): after 7 days of culture
Description: as §2
HDACi treatment suppresses acinar differentiation and promotes ductal differentiation: The inventors first compared the morphology of pancreases cultured in the presence or absence of HDACi.

[6] = test system: E13.5 rat pancreatic explants; assay: Dose finding of HDACi in organ culture (cell death); details: TSA tested from 50 nM to 200 nM; data not shown
Procedure: (§1) (Invitrogen) supplemented with penicillin (100 U/mL), streptomycin (100 μg/mL), HEPES (10 mmol/L), L-glutamine (2mmol/L), non-essential amino acids (1x, Invitrogen) and 10% heat-inactivated calf serum (HyClone). Cultures were maintained at 37° C. in humidified 95% air/5% CO2. Medium was changed every other day. Explants were cultured in the presence of VPA or TSA (Sigma). We determined the optimal concentration of both inhibitors by testing increasing doses of VPA (from 0.75 mM to 3 mM) and TSA (from 50 nM to 200 nM). […] MS275 and NaB (Sigma) were used at 1 μM and 125 μM, respectively. For cell proliferation assay, 10 μM BrdU (Sigma) was added to the medium during the last hour of culture.

[7] = test system: E13.5 rat pancreatic explants; assay: Immunohistochemistry and surface-area quantification of cultured pancreatic explants; format: cell-based; details: for NGN3+ cells: immunohistochemical analysis, day7; for increase in the number of glucagon-expressing cells: immunohistological analysis; for number of insulin+ cells: immunohistology, days 5 and 7; for acinar cell development (surface area occupied by amylase+ cells): vs control
Description: Dorsal pancreatic buds from E13.5 rat embryos were dissected as described previously (2).
as §2

[8] = test system: E13.5 rat pancreatic explants; assay: BrdU incorporation cell proliferation assay in pancreatic explants; format: cell-based; details: for proliferative rate for glucagon+ cells: 5-day treatment, vs controls; for percentage of PDX1+/BrdU+: 1 day of culture, BrdU during last hour, control 30.4±1.4%; for proliferation of NGN3+ cells: after 3 days of culture
Procedure: as §1
Immunohistochemistry and quantification: Tissues were fixed in 10% formalin, pre-embedded in low gelling agarose and embedded in paraffin. All sections (4 μm thick) of each pancreatic explant were collected and processed for immunohistochemistry, as described previously (14, 46). Antibodies were used at the following dilutions: mouse anti-insulin (Sigma, 1/2000), guinea pig anti-insulin (DAKO, 1/200), mouse anti-glucagon (Sigma, 1/2000), rabbit anti-amylase (Sigma, 1/300), goat anti-osteopontin/SPP1 (R&D systems, 1/200), rabbit anti-PDXI ((14), 1/1000), mouse anti-BrdU (Amersham, ½), rabbit anti-Ngn3 ((21), 1/1000). The fluorescent secondary antibodies were: fluorescein anti-rabbit and anti-goat antibodies (Jackson Immunoresearch, 1/200), Texas-red anti-mouse antibody (Jackson Immunoresearch, 1/200) Alexa fluor 488 anti-rabbit antibody (Biogenex, 1/400) and AMCA anti-guinea pig antibody (Jackson Immunoresearch, 1/200). Nuclei were stained blue with Hoechst 33342 (0.3 μg/ml, Invitrogen). Ngn3 detection was perfointed as previously described (21) using the Vectastain elite ABC kit (Vector Laboratories). Photographs were taken using a fluorescence microscope (Leitz DMRB, Leica) and digitized using cooled 3CCD cameras (C5810 or C7780, Hamamatsu). The surface area of each staining was quantified with IPLab (Scanalytics). The surface areas per section were summed to obtain the total surface area per explant in mm2. At least three explants were analyzed per condition and results are expressed as means±SEM. Statistical significance was determined using Student's t test.
Thus, they cultured pancreases for 1 day with or without VPA and TSA and added BrdU to the medium during the last hour of culture.

[9] = test system: Total cellular HDAC enzyme activity; assay: HDAC enzyme activity assay (total cellular HDAC activity of treated explant extracts); format: biochemical; details: extracts of cultured rat pancreatic explants treated with 1 mM VPA or 100 nM TSA
Procedure: HDAC enzyme activity assay: Total cellular HDAC enzyme activity was measured using an HDAC assay kit (Millipore). Briefly, 2 μg of control or VPA- or TSA-treated cell extracts (prepared as described above) were incubated in a 96-well plate with a fluorometric substrate in HDAC assay buffer for 45 min at 37° C. An activator solution was then added to release the fluorophore from the deacetylated substrates, and fluorescence was measured in a plate-reading fluorimeter (excitation=390 nm, emission detection=460 nm).
To study the role of HDACs in pancreas development, the inventors treated rat pancreatic explants with VPA and TSA. They cultured E13.5 rat pancreases on floating filters at the air-medium interface for 14 days. Under such conditions, acinar and endocrine cells develop in a way that replicates pancreas development in vivo (2, 21). […] They next measured total HDAC activity from day 0 to day 14 and found a 65.4%±1.6% decrease between the two stages.

[10] = real-time PCR, 7 days of culture

Structure (SMILES) | NeuroD1 expression ([1]; real-time PCR) | insulin expression [1, 10] | somatostatin expression [1, 10] | Arx expression enhanced ([1]; real-time PCR) | Ngn3 expression peak, higher than in controls ([1]; real-time PCR) | increase in PP expression ([1]; real-time PCR) | increase in glucagon expression ([1]; real-time PCR) | SPP1 expression ([1]; real-time PCR) | Ngn3 expression profile ([1]; real-time PCR) | Pax4 expression ([1]; real-time PCR) | increase in levels of Mist1 ([1]; real-time PCR) | increase in levels of P48 ([1]; real-time PCR) | increase in levels of amylase ([1]; real-time PCR) | HDAC class selectivity [3] | Ngn3 mRNA expression by in situ hybridization [4] | morphology of cultured pancreas (branching, cystic structures, acinar structures) [5] | NGN3+ cells [7] | increase in the number of glucagon-expressing cells [7] | number of insulin+ cells [7] | acinar cell development (surface area occupied by amylase+ cells) [7] | also measured
CC(/C=C/C(=O)NO)=C\[C@@H](C)C(=O)c1ccc(N(C)C)cc1 [TSA, trichostatin A] | strongly activated | no differences | no differences | ~11 fold | 14 fold | 6 fold | 25 fold | major increase | dramatic increase | strongly activated | strongly reduced | strongly reduced | strongly reduced | inhibits both class I and class II HDACs | enhanced Ngn3 expression | the tips of the branched epithelium formed cystic structures | many were present | 4 fold | no differences | much lower | somatostatin expression ([1]; after 14 days in culture, data not shown): increased; insulin expression increased compared with controls ([1]; real-time PCR, day9): 2 fold; insulin expression increased compared with controls ([1]; real-time PCR, day11): 3 fold; insulin expression increased compared with controls ([1]; real-time PCR, day14): 5 fold; number of apoptotic cells expressing amylase or insulin ([2]; TUNEL method): neither VPA nor TSA treatments modified the number of apoptotic cells; morphology: translucent buds at the periphery of the pancreas ([5]; after 11 days of culture): developed translucent buds; concentrations that result in increased cell death [6]: above 125 nM; proliferative rate for glucagon+ cells [8]: no difference; percentage of PDX1+/BrdU+ [8]: 31.9±1.4%; proliferation of NGN3+ cells [8]: neither VPA nor TSA increased the proliferation; decrease in HDAC activity [9]: 99.2%±0.9%
CCCC(CCC)C(=O)O [VPA, valproic acid] | significantly lower | dramatic decrease | almost full abolition | around 3 fold | 14 fold | 4 fold | 5 fold | major increase | dramatic increase | dramatic decrease | strongly reduced | strongly reduced | strongly reduced | preferentially targets class I HDACs | enhanced Ngn3 expression | the tips of the branched epithelium formed cystic structures | many were present | 4 fold | major decrease | much lower | insulin expression ([1]; tissues cultured for 14 days): remained dramatically low; number of apoptotic cells expressing amylase or insulin [2]: neither VPA nor TSA treatments modified the number of apoptotic cells; insulin+ cells observed immunohistochemically ([7]; tissues cultured for 14 days): Few; proliferative rate for glucagon+ cells [8]: no difference; percentage of PDX1+/BrdU+ [8]: 29.3±2.3%; proliferation of NGN3+ cells [8]: neither VPA nor TSA increased the proliferation; decrease in HDAC activity [9]: 93.2%±2.3%
Nc1ccccc1NC(=O)c1ccc(CNC(=O)OCc2cccnc2)cc1 [MS275] |  |  |  |  |  |  |  |  |  |  |  |  |  |  |  |  |  |  |  |  | endocrine β/δ lineage [1]: results similar to those with VPA
CCCC(=O)[O-].[Na+] [NaB, sodium butyrate] |  |  |  |  |  |  |  |  |  |  |  |  |  |  |  |  |  |  |  |  | endocrine β/δ lineage [1]: results similar to those with TSA
